From patent US20160279187A1, “CALPAIN INHIBITORS FOR IBD AND COLORECTAL CANCER TREATMENT” (UNIVERSITY OF HAWAII, priority 2013, published 2016)
Where a SMILES comes first, the peptide text is derived from it. The star is where a group is joined. Cbz = O=C(OCc1ccccc1)*; CH2F = FC*

Experiments:
[1] = system: IκB / NFκB in CT-26 WT cells; experiment: IκB and nuclear NFκB western blot, CT-26.WT; format: cell-based, mouse; details: vs DMSO
[2] = system: Akt phosphorylation / FAK cleavage in macrophages; experiment: other m-calpain regulated pathways in macrophages (Akt, FAK); format: cell-based
[3] = system: CT-26 WT mouse colon cancer cells; experiment: proliferation assay (MTS), CT-26.WT; format: cell-based; details: 20 μg/ml, vs DMSO
Protocol: (§1) Bone marrow derived macrophages (BMDM) were prepared as previously described by methods known to those skilled in the art. On day 5 of culture, 2×10^6 BMDM were seeded in 6-well plates and the following day were primed for 18 h with TNFα (20 ng/mL), followed by 1 h stimulation with E. faecalis (1 μg/mL; ATCC). Stimulation with E. faecalis was conducted in the presence of the zLLY-CH2F calpain-2 inhibitor (20 μg/mL) or DMSO as a control. Media was removed from treated BMDM, centrifuged at 300×g for 5 min and supernatent analyzed using the Cytometric Bead Array Mouse Inflammation Kit (BD Biosciences, San Jose, Calif.). Cytokine data were analyzed using Flowjo software (Ashland, Oreg.) and GraphPad Prism version 4.0 (GraphPad, La Jolla, Calif.). Cell pellets were lysed and analyzed for IκB and NFκB by Western blot as previously described (Miyazaki, T. et al. Journal of Atherosclerosis and Thrombosis 20, 228-237, 2013). […] Each day 4 wells were quantified using Celltiter MTS reagent (Promega) and the resulting signal was used to generate a proliferation curve. Calpain activity was measured using a Calpain activity assay kit (BioVision, Inc., Milpitas, Calif.) as previously described. Colons were harvested on day 4 and calpain activity measured. […]

[4] = system: Akt phosphorylation / FAK cleavage in colon cancer cells; experiment: other m-calpain regulated pathways in colon cancer cells (Akt, FAK); format: cell-based
[5] = biological target: T1, M-Calpain activity in HT-29 cells (Homo sapiens, UniProt P17655); experiment: Calpain Activity Assay Kit (BioVision), HT-29; format: cell-based; details: HT-29, vs DMSO, 1 hour
T1 construct: endogenous in cells; host or cells: HT-29 human colorectal cancer cells
T1 sequence (P17655 20-700 limits assumed): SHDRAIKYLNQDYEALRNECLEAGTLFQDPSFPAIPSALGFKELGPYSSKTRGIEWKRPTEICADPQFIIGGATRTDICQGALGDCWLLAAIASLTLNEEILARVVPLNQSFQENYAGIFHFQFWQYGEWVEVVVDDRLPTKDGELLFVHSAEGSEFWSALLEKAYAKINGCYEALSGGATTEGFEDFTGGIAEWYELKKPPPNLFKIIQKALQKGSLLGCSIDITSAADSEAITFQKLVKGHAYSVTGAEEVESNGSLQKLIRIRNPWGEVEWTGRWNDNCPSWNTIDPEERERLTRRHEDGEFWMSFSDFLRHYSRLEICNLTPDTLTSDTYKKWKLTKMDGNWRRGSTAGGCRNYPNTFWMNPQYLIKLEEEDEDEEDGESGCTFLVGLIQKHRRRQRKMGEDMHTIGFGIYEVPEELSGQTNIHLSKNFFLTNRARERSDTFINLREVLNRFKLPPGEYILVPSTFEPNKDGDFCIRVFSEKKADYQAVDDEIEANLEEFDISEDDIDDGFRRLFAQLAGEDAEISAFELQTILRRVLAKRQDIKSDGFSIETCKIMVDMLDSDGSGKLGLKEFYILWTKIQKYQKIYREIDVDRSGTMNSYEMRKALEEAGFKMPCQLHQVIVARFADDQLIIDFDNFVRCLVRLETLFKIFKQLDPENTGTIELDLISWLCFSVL
T1 sequence (P04632 1-268 partner): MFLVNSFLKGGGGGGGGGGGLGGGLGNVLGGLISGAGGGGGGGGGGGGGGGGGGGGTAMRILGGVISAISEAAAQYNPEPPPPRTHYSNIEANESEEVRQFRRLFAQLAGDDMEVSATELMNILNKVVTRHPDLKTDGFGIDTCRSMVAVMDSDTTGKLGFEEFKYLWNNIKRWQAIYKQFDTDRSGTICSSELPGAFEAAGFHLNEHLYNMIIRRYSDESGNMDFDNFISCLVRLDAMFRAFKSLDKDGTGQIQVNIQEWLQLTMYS
Protocol: as §1

In the case of CC(C)C[C@H](NC(=O)OCc1ccccc1)C(=O)N[C@@H](CC(C)C)C(=O)N[C@@H](Cc1ccc(O)cc1)C(=O)CF [zLLY-CH2F, Z-LLY-CH2F] (Cbz-Leu-Leu-Tyr-CH2F), the IκB degradation [1] is reported as “reduced”, the NFκB nuclear localization [1] is reported as “reduced” and the FAK cleavage [2] is reported as “major effect”. The “phosphorylation of Akt” value [2] was “inhibited”, the proliferation [3] was “reduction” and the FAK cleavage [4] was “not apparent”. For the same compound, the “phosphorylation of Akt” value [4] was “inhibited” and the M-Calpain activity [5] was “reduced”.
